# Experimental data taken from patent publication US10689414B2 (Agios Pharmaceuticals, Inc., priority 2013, dated 2020).
# Tested on: U87MG cells
# Assay: Cellular assay, inhibition of 2-HG production in U87MG cells
# Type: cell-based
# Procedure: Cells (HT1080 or U87MG) are grown in T125 flasks in DMEM containing 10% FBS, 1× penicillin/streptomycin and 500 ug/mL G418 (present in U87MG cells only). They are harvested by trypsin and seeded into 96 well white bottom plates at a density of 5000 cell/well in 100 ul/well in DMEM with 10% FBS. […] Cells are incubated overnight at 37° C. in 5% CO2. The next day test compounds are made up at 2× the final concentration and 100 ul are added to each cell well. The final concentration of DMSO is 0.2% and the DMSO control wells are plated in row G. The plates are then placed in the incubator for 48 hours. […] The cell plate is placed back in the incubator for another 24 hours. At 72 hours post compound addition, 10 mL/plate of Promega Cell Titer Glo reagent is thawed and mixed. The cell plate is removed from the incubator and allowed to equilibrate to room temperature. Then 100 ul of Promega Cell Titer Glo reagent is added to each well of media. The cell plate is then placed on an orbital shaker for 10 minutes and then allowed to sit at room temperature for 20 minutes. The plate is then read for luminescence with an integration time of 500 ms.
"IC50 (Homo sapiens, U-87 MG, 48 h)","IC50 (inhibition of 2-HG production, U87MG cells, 48 hours)",Compound
< 100 nM,,"N#Cc1ccnc(N2C(=O)CCC[C@H]2C(=O)N(c2cccc(F)c2)[C@H](C(=O)NC2CC(F)(F)C2)c2ccccc2Cl)c1 [Compound 55, (S)—N—((S)-1-(2-Chlorophenyl)-2-(3,3-difluorocyclobutylamino)-2-oxoethyl)-1-(4-cyanopyri-din-2-yl)-N-(3-fluorophenyl)-6-oxopiperidine-2-carboxamide]"
< 100 nM,,"N#Cc1ccnc(N2C(=O)[C@H](O)C[C@H]2C(=O)N(c2cccc(F)c2)[C@H](C(=O)NC2CC(F)(F)C2)c2ccccc2Cl)c1 [Compound 113, (2S,4R)—N—((S)-1-(2-Chlorophenyl)-2-(3,3-difluorocyclobutylamino)-2-oxoethyl)-1-(4-cyano-pyridin-2-yl)-N-(3-fluorophenyl)-4-hydroxy-5-oxopyrrolidine-2-carboxamide]"
,< 100 nM,"(S)—N—((S)-1-(2-Chlorophenyl)-2-((4,4-difluorocyclohexyl)amino)-2-oxoethyl)-1-(4-cyanopyridin-2-yl)-N-(1H-indazol-6-yl)-5-oxopyrrolidine-2-carboxamide [Compound 136]"
< 100 nM,,"CN1C[C@@H](C(=O)N(c2cccc(F)c2)C(C(=O)NC2CC(F)(F)C2)c2ccccc2Cl)N(c2cc(C#N)ccn2)C1=O (stereo partly drawn) [Compound 79, (4S)—N-(1-(2-chlorophenyl)-2-((3,3-difluorocyclobutyl)amino)-2-oxoethyl)-3-(4-cyanopyridin-2-yl)-N-(3-fluorophenyl)-1-methyl-2-oxoimidazolidine-4-carboxamide]"
< 100 nM,,"N#Cc1ccnc(N2C(=O)[C@H](O)C[C@H]2C(=O)N(c2cccc(F)c2)[C@H](C(=O)NC2CCC(F)(F)CC2)c2ccccc2Cl)n1 [Compound 123, (2S,4R)—N—((S)-1-(2-Chlorophenyl)-2-((4,4-difluorocyclohexyl)amino)-2-oxoethyl)-1-(4-cyanopyrimidin-2-yl)-N-(3-fluorophenyl)-4-hydroxy-5-oxopyrrolidine-2-carboxamide]"
< 100 nM,,N#Cc1ccnc(N2C(=O)CC[C@H]2C(=O)N(c2cncc(F)c2)C(C(=O)NC2CC(F)(F)C2)c2ccccc2Cl)c1 (stereo partly shown) [Compound 91]
< 100 nM,,"N#Cc1cc(F)cc(N(C(=O)[C@@H]2CCC(=O)N2c2nccc(C#N)n2)[C@H](C(=O)NC2CCC(F)(F)CC2)c2ccccc2Cl)c1 [Compound 185, (S)—N—((S)-1-(2-Chlorophenyl)-2-((4,4-difluorocyclohexyl)amino)-2-oxoethyl)-N-(3-cyano-5-fluorophenyl)-1-(4-cyanopyrimidin-2-yl)-5-oxopyrrolidine-2-carboxamide]"
< 100 nM,,"N#Cc1ccnc(N2C(=O)CC[C@H]2C(=O)N(c2cncc(F)c2)[C@H](C(=O)NC2CCC(F)(F)CC2)c2ccccc2Cl)c1 [Compound 193, (S)—N—((S)-1-(2-Chlorophenyl)-2-(4,4-difluorocyclohexylamino)-2-oxoethyl)-1-(4-cyanopyridin-2-yl)-N-(5-fluoropyridin-3-yl)-5-oxopyrrolidine-2-carboxamide]"
< 100 nM,,"CS(=O)(=O)c1cc(F)cc(N(C(=O)[C@@H]2CCC(=O)N2c2nccc(C#N)n2)[C@H](C(=O)NC2CCC(F)(F)CC2)c2ccccc2Cl)c1 [Compound 168, (S)—N—((S)-1-(2-Chlorophenyl)-2-((4,4-difluorocyclohexyl)amino)-2-oxoethyl)-1-(4-cyanopyrimidin-2-yl)-N-(3-fluoro-5-(methylsulfonyl)phenyl)-5-oxopyrrolidine-2-carboxamide]"
< 100 nM,,"N#Cc1ccnc(N2C(=O)CC[C@H]2C(=O)N(c2cccc(F)c2)[C@H](C(=O)NC2CCC(F)(F)CC2)c2ccccc2Cl)n1 [Compound 85, (S)—N—((S)-1-(2-Chlorophenyl)-2-((4,4-difluorocyclohexyl)amino)-2-oxoethyl)-1-(4-cyanopyrimidin-2-yl)-N-(3-fluorophenyl)-5-oxopyrrolidine-2-carboxamide]"
< 100 nM,,"N#Cc1ccnc(N2C(=O)CC[C@H]2C(=O)N(c2cc(F)cc(S(N)(=O)=O)c2)[C@H](C(=O)NC2CC(F)(F)C2)c2ccccc2Cl)c1 [Compound 158, (2S)—N-(1-(2-chlorophenyl)-2-(3,3-difluorocyclobutylamino)-2-oxo-ethyl)-1-(4-cyanopyridin-2-yl)-N-(3-fluoro-5-sulfamoylphenyl)-5-oxopyrrolidine-2-carboxamide]"
< 100 nM,,N#Cc1ccnc(N2C(=O)CC[C@H]2C(=O)N(c2cccc(F)c2)[C@H](C(=O)NC2CC(F)(F)C2)c2ccccc2Cl)c1 [Compound 37]
< 100 nM,,"O=C(NC1CCC(F)(F)C1)C(c1ccccc1Cl)N(C(=O)[C@@H]1CCC(=O)N1c1ncccn1)c1cccc(F)c1 (mixture of isomers) [Compound 73, (2S)—N-(1-(2-Chlorophenyl)-2-((3,3-difluorocyclopentyl)amino)-2-oxoethyl)-N-(3-fluorophenyl)-5-oxo-1-(pyrimidin-2-yl)pyrrolidine-2-carboxamide]"
< 100 nM,,"N#Cc1ccnc(N2C(=O)OCC[C@H]2C(=O)N(c2cncc(F)c2)[C@H](C(=O)NC2CCC(F)(F)CC2)c2ccccc2Cl)c1 [Compound 137, (S)—N—((S)-1-(2-Chlorophenyl)-2-((4,4-difluorocyclohexyl)amino)-2-oxoethyl)-3-(4-cyano-pyridin-2-yl)-N-(5-fluoropyridin-3-yl)-2-oxo-1,3-oxazinane-4-carboxamide]"
< 100 nM,,"CN1CC(=O)N(c2cc(C#N)ccn2)[C@H](C(=O)N(c2cc(F)cc(F)c2)[C@H](C(=O)NC2CC(F)(F)C2)c2ccccc2Cl)C1 [Compound 101, (S)—N—((S)-1-(2-chlorophenyl)-2-((3,3-difluorocyclobutyl)amino)-2-oxoethyl)-1-(4-cyanopyridin-2-yl)-N-(3,5-difluorophenyl)-4-methyl-6-oxopiperazine-2-carboxamide]"
< 100 nM,,"CC(C)(C)OC(=O)N1CC(=O)N(c2cc(C#N)ccn2)[C@H](C(=O)N(c2cccc(F)c2)[C@H](C(=O)NC2CC(F)(F)C2)c2ccccc2Cl)C1 [Compound 89, (3S)-tert-Butyl 3-((1-(2-chlorophenyl)-2-((3,3-difluorocyclobutyl)amino)-2-oxoethyl)(3-fluorophenyl)carbamoyl)-4-(4-cyanopyridin-2-yl)-5-oxopiperazine-1-carboxylate]"
< 100 nM,,"N#Cc1ccnc(N2C(=O)OC[C@H]2C(=O)N(c2cccc(F)c2)[C@H](C(=O)NC2CC(F)(F)C2)c2ccccc2Cl)c1 [Compound 77, (S)—N—((S)-1-(2-Chlorophenyl)-2-(3,3-difluorocyclobutylamino)-2-oxoethyl)-3-(4-cyanopyri-din-2-yl)-N-(3-fluorophenyl)-2-oxooxazolidine-4-carboxamide]"
< 100 nM,,CNS(=O)(=O)c1cccc(N(C(=O)[C@@H]2CCC(=O)N2c2cc(C#N)ccn2)[C@H](C(=O)NC2CC(F)(F)C2)c2ccccc2Cl)c1 [Compound 157]
< 100 nM,,"N#Cc1ccnc(N2C(=O)CC[C@H]2C(=O)N(c2cccc(CO)c2)[C@H](C(=O)NC2CC(F)(F)C2)c2ccccc2Cl)c1 [Compound 131, (S)—N—((S)-1-(2-Chlorophenyl)-2-(3,3-difluorocyclobutylamino)-2-oxoethyl)-1-(4-cyanopyridin-2-yl)-N-(3-(hydroxymethyl)phenyl)-5-oxopyrrolidine-2-carboxamide]"
